Data taken from patent US20190284136A1, “INDOLINE DERIVATIVES” (ViiV HEALTHCARE UK LIMITED, priority 2016, published 2019).
pIC50: −log10 of the molar value. Where two headings read alike, the source gives them in different places.

Test system: HIV
Assay: Table 1 IC50 of the examples (assay method not given; patent concerns inhibiting HIV replication)
Format: cell-based

Row | Compound | pIC50 (Human immunodeficiency virus 1) | pIC50
1 | Cc1ccc(C(=O)N2CCc3c2cc(C)c([C@H](OC(C)(C)C)C(=O)O)c3-c2ccc3c(c2C)CCCO3)cn1 (atropisomer, axis not shown) [Example 191, (S)-2-(tert-Butoxy)-2-((R)-6-methyl-4-(5-methylchroman-6-yl)-1-(6-methylnicotinoyl)indolin-5-yl)acetic acid] | 6.06 | 
2 | COc1ccc(C(=O)N2CCc3c2cc(C)c([C@H](OC(C)(C)C)C(=O)O)c3-c2cc(OC)c3c(c2C)CCCO3)cc1C (atropisomer, axis not shown) [Example 192, (S)-2-(tert-Butoxy)-2-((R)-1-(4-methoxy-3-methylbenzoyl)-4-(8-methoxy-5-methylchroman-6-yl)-6-methylindolin-5-yl)acetic acid] | 8.30 | 
3 | COc1cc(-c2c3c(cc(C)c2[C@H](OC(C)(C)C)C(=O)O)N(C(=O)c2ccc(C)nc2)CC3)c(C)c2c1OCCC2 (atropisomer, axis not shown) [Example 193, (S)-2-(tert-Butoxy)-2-((R)-4-(8-methoxy-5-methylchroman-6-yl)-6-methyl-1-(6-methylnicotinoyl)indolin-5-yl)acetic acid] | 8.05 | 
4 | COc1ccc(C(=O)N2CCc3c2cc(C)c([C@H](OC(C)(C)C)C(=O)O)c3-c2cc(C)c3c(c2C)CCCO3)cc1C (atropisomer, axis not shown) [Example 194, (S)-2-(tert-Butoxy)-2-((R)-4-(5,8-dimethylchroman-6-yl)-1-(4-methoxy-3-methylbenzoyl)-6-methylindolin-5-yl)acetic acid] | 7.37 | 
5 | Cc1ccc(C(=O)N2CCc3c2cc(C)c([C@H](OC(C)(C)C)C(=O)O)c3-c2cc(C)c3c(c2C)CCCO3)cn1 (atropisomer, axis not shown) [Example 195, (S)-2-(tert-Butoxy)-2-((R)-4-(5,8-dimethylchroman-6-yl)-6-methyl-1-(6-methylnicotinoyl)indolin-5-yl)acetic acid] | 6.92 | 
6 | COc1ccc(C(=O)N2CCc3c2cc(C)c([C@H](OC(C)(C)C)C(=O)O)c3-c2cc(C(F)(F)F)c3c(c2C)CCCO3)cc1C (atropisomer, axis not shown) [Example 196, (S)-2-(tert-Butoxy)-2-((R)-1-(4-methoxy-3-methylbenzoyl)-6-methyl-4-(5-methyl-8-(trifluoromethyl)chroman-6-yl)indolin-5-yl)acetic acid] | 6.44 | 
7 | Cc1ccc(C(=O)N2CCc3c2cc(C)c([C@H](OC(C)(C)C)C(=O)O)c3-c2cc(C(F)(F)F)c3c(c2C)CCCO3)cn1 (atropisomer, axis not shown) [Example 197, (S)-2-(tert-Butoxy)-2-((R)-6-methyl-4-(5-methyl-8-(trifluoromethyl)chroman-6-yl)-1-(6-methylnicotinoyl)indolin-5-yl)acetic acid] | 6.15 | 
8 | Cc1cc2c(ccn2Cc2ccc(F)c(F)c2)c(-c2cc(F)c3c(c2C)CCCO3)c1[C@H](OC(C)(C)C)C(=O)O (atropisomer, axis not shown) [Example 198, (S)-2-(tert-Butoxy)-2-((R)-1-(3,4-difluorobenzyl)-4-(8-fluoro-5-methylchroman-6-yl)-6-methyl-1H-indol-5-yl)acetic acid] | 6.82 | 
9 | Cc1cc(F)ccc1Cn1ccc2c(-c3cc(F)c4c(c3C)CCCO4)c([C@H](OC(C)(C)C)C(=O)O)c(C)cc21 (atropisomer, axis not shown) [Example 199, (S)-2-(tert-Butoxy)-2-((R)-1-(4-fluoro-2-methylbenzyl)-4-(8-fluoro-5-methylchroman-6-yl)-6-methyl-1H-indol-5-yl)acetic acid] | 7.38 | 
10 | COc1c(F)cccc1Cn1ccc2c(-c3cc(F)c4c(c3C)CCCO4)c([C@H](OC(C)(C)C)C(=O)O)c(C)cc21 (atropisomer, axis not shown) [Example 200, (S)-2-(tert-Butoxy)-2-((R)-1-(3-Fluoro-2-methoxybenzyl)-4-(8-fluoro-5-methylchroman-6-yl)-6-methyl-1H-indol-5-yl)acetic acid] | 7.47 | 
11 | Cc1cc2c(ccn2Cc2ccccn2)c(-c2cc(F)c3c(c2C)CCCO3)c1[C@H](OC(C)(C)C)C(=O)O (atropisomer, axis not shown) [Example 201, (S)-2-(tert-Butoxy)-2-((R)-4-(8-Fluoro-5-methylchroman-6-yl)-6-methyl-1-(pyridin-2-ylmethyl)-1H-indol-5-yl)acetic acid] | 7.10 | 
12 | Cc1cc2c(ccn2C(=O)c2ccc(F)c(F)c2)c(-c2cc(F)c3c(c2C)CCCO3)c1[C@H](OC(C)(C)C)C(=O)O (atropisomer, axis not shown) [Example 203, (S)-2-(tert-Butoxy)-2-((R)-1-(3,4-difluorobenzoyl)-4-(8-fluoro-5-methylchroman-6-yl)-6-methyl-1H-indol-5-yl)acetic acid] | 7.80 | 
13 | Cc1ccc(C(=O)N2c3cc(C)c([C@H](OC(C)(C)C)C(=O)O)c(-c4cc(F)c5c(c4C)CCCO5)c3CC2(C)C)cn1 (atropisomer, axis not shown) [Example 204, (S)-2-(tert-Butoxy)-2-((R)-4-(8-Fluoro-5-methylchroman-6-yl)-2,2,6-trimethyl-1-(6-methylnicotinoyl)indolin-5-yl)acetic acid] | 7.72 | 
14 | COc1ccc(C)cc1C(=O)N1c2cc(C)c([C@H](OC(C)(C)C)C(=O)O)c(-c3cc(F)c4c(c3C)CCCO4)c2CC1(C)C (atropisomer, axis not shown) [Example 205, (S)-2-(tert-Butoxy)-2-((R)-4-(8-Fluoro-5-methylchroman-6-yl)-1-(2-methoxy-5-methylbenzoyl)-2,2,6-trimethylindolin-5-yl)acetic acid] | 7.70 | 
15 | COc1ccc(C(=O)N2c3cc(C)c([C@H](OC(C)(C)C)C(=O)O)c(-c4cc(F)c5c(c4C)CCCO5)c3CC2(C)C)cc1C (atropisomer, axis not shown) [Example 206, (S)-2-(tert-Butoxy)-2-((R)-4-(8-fluoro-5-methylchroman-6-yl)-1-(4-methoxy-3-methylbenzoyl)-2,2,6-trimethylindolin-5-yl)acetic acid] | 7.89 | 
16 | COc1c(F)cccc1C(=O)N1CCc2c1cc(C)c([C@H](OC(C)(C)C)C(=O)O)c2-c1cc(F)c2c(c1C)CCCO2 (atropisomer, axis not shown; (P)) [Example 23, (S)-2-(tert-Butoxy)-2-((P)-1-(3-fluoro-2-methoxybenzoyl)-4-(8-fluoro-5-methylchroman-6-yl)-6-methylindolin-5-yl)acetic acid] |  | 7.02
17 | Cc1ccc(-c2c3c(cc(C)c2C(OC(C)(C)C)C(=O)O)N(Cc2ccc(F)c(F)c2)CC3)cc1 (stereo not drawn) [Example 1] | 6.29 | 
18 | Cc1cc2c(c(-c3cc(F)c4c(c3C)CCCO4)c1C(OC(C)(C)C)C(=O)O)CCN2Cc1ccc(F)c(F)c1 (stereo not drawn) [Example 2, 2-(tert-Butoxy)-2-(1-(3,4-difluorobenzyl)-4-(8-fluoro-5-methylchroman-6-yl)-6-methylindolin-5-yl)acetic acid] | 6.48 | 
19 | Cc1ccc(-c2c3c(cc(C)c2C(OC(C)(C)C)C(=O)O)N(C(=O)c2ccc(F)c(F)c2)CC3)cc1 (stereo not drawn) [Example 3, 2-(tert-Butoxy)-2-(1-(3,4-difluorobenzoyl)-6-methyl-4-(p-tolyl)indolin-5-yl)acetic acid] | 7.92 | 
20 | Cc1ccc(-c2c3c(cc(C)c2C(OC(C)(C)C)C(=O)O)N(C2CCCCC2)CC3)cc1 (stereo not drawn) [Example 4, 2-(tert-Butoxy)-2-(1-cyclohexyl-6-methyl-4-(p-tolyl)indolin-5-yl)acetic acid] | 5.12 | 
21 | Cc1ccc(-c2c3c(cc(C)c2C(OC(C)(C)C)C(=O)O)N(C(=O)C(=O)N2CCCCC2)CC3)cc1 (stereo not drawn) [Example 5, 2-(tert-Butoxy)-2-(6-methyl-1-(2-oxo-2-(piperidin-1-yl)acetyl)-4-(p-tolyl)indolin-5-yl)acetic acid] | 6.46 | 
22 | Cc1ccc(-c2c3c(cc(C)c2C(OC(C)(C)C)C(=O)O)N(C(=O)N2CCCCC2)CC3)cc1 (stereo not drawn) [Example 6, 2-(tert-Butoxy)-2-(6-methyl-1-(piperidine-1-carbonyl)-4-(p-tolyl)indolin-5-yl)acetic acid] | 6.43 | 
23 | Cc1ccc(-c2c3c(cc(C)c2C(OC(C)(C)C)C(=O)O)N(C(=O)Nc2ccc(F)cc2)CC3)cc1 (stereo not drawn) [Example 7, 2-(tert-Butoxy)-2-(1-((4-fluorophenyl)carbamoyl)-6-methyl-4-(p-tolyl)indolin-5-yl)acetic acid] | 5.52 | 
24 | Cc1ccc(-c2c3c(cc(C)c2C(OC(C)(C)C)C(=O)O)N(C(=O)C2CCCCC2)CC3)cc1 (stereo not drawn) [Example 8, 2-(tert-Butoxy)-2-(1-(cyclohexanecarbonyl)-6-methyl-4-(p-tolyl)indolin-5-yl)acetic acid] | 7.82 | 
25 | Cc1ccc(-c2c3c(cc(C)c2[C@H](OC(C)(C)C)C(=O)O)N(C(=O)c2ccc(C)cc2C)CC3)cc1 [Example 9, (S)-2-(tert-Butoxy)-2-(1-(2,4-dimethylbenzoyl)-6-methyl-4-(p-tolyl)indolin-5-yl)acetic acid] | 7.96 | 
26 | COc1ccc(C(=O)N2CCc3c2cc(C)c([C@H](OC(C)(C)C)C(=O)O)c3-c2ccc(C)cc2)c(C)c1 [Example 10, (S)-2-(tert-Butoxy)-2-(1-(4-methoxy-2-methylbenzoyl)-6-methyl-4-(p-tolyl)indolin-5-yl)acetic acid] | 7.92 | 
27 | COc1ccc(C(=O)N2CCc3c2cc(C)c([C@H](OC(C)(C)C)C(=O)O)c3-c2ccc(C)cc2)cc1F [Example 11, (S)-2-(tert-Butoxy)-2-(1-(3-fluoro-4-methoxybenzoyl)-6-methyl-4-(p-tolyl)indolin-5-yl)acetic acid] | 8.40 | 
28 | COc1cc(C(=O)N2CCc3c2cc(C)c([C@H](OC(C)(C)C)C(=O)O)c3-c2ccc(C)cc2)cc(F)c1F [Example 12, (S)-2-(tert-Butoxy)-2-(1-(3,4-difluoro-5-methoxybenzoyl)-6-methyl-4-(p-tolyl)indolin-5-yl)acetic acid] | 8.40 | 
29 | COc1ccc(C(=O)N2CCc3c2cc(C)c([C@H](OC(C)(C)C)C(=O)O)c3-c2ccc(C)cc2)cc1 [Example 13, (S)-2-(tert-Butoxy)-2-(1-(4-methoxybenzoyl)-6-methyl-4-(p-tolyl)indolin-5-yl)acetic acid] | 7.96 | 
30 | Cc1ccc(-c2c3c(cc(C)c2[C@H](OC(C)(C)C)C(=O)O)N(C(=O)c2ccc(F)cc2)CC3)cc1 [Example 14, (S)-2-(tert-Butoxy)-2-(1-(4-fluorobenzoyl)-6-methyl-4-(p-tolyl)indolin-5-yl)acetic acid] | 8.15 | 
